The record followed here is patent US10266545B2, “Coumarin derivative as antiviral agent, pharmaceutical composition thereof, its preparation and use” (I-NOVA MEDICINSKA ISTRAZIVANJA D.O.O., priority 2016, dated 2019).

A short description of data set [1]: Cytotoxicity (MNC, CC50) by MTT assay on uninfected MT-4 cell line. To be noted: human; MT-4 cells, 72 h, MTT; read-out: CC50 (cytotoxic concentration for 50% cells). The format is cell-based. The method, then:
(§1) Cell viability was estimated by a modification of the 3-(4,5-dimethylthiazol-2-yl)-2,5-diphenyltetrazolium bromide (MTT) assay, which is described in the literature reference 9: • 9) T. Mosmann: Rapid colorimetric assay for cellular growth and survival: Application to proliferation and cytotoxicity assays, J. Immunol.
(§2) Both MNC and CC50 values were evaluated simultaneously by morphological and by cell survival criteria. We used MTT-test, determining the living and early apoptotic cells.
(§3) The cells in the suspension culture are growing in clusters. […] Cells were passaged 1:3-1:5 at a density around 6-8·10^4 cells/ml, while the passage was re-suspended repeatedly.
(§4) Cell viability was estimated by a modification of the 3-(4,5-dimethylthiazol-2-yl)-2,5-diphenyltetrazolium bromide (MTT) assay, which is described in the reference 9.
(§5) Since the cell culture we have worked with were suspension, a solution of poly-L-lysine (PLL; Mw=90,000; Sigma-Aldrich, USA) was used for cell attachment on the bottom of a 96-well plate. The plates were treated with 100 μl of PLL at a concentration of 50 μg/ml in phosphate buffered saline (PBS; Sigma-Aldrich, USA), pH=7.4, then incubated for 1 h at room temperature. Followed aspiration of PLL solution and washing the plate twice with sterile PBS. Cells were then seeded at a concentration of 7-8·10^4 cells/100 μl for all experiments. Since the final volume of the culture medium in each well was 200 μl, additional 100 μl of 10% FBS (containing no cells) was added. For the purpose of the experiment, there was no need of forming a dense cell monolayer and after 24 h, when the adherent cells were stick to the plastic, the supernatant was decanted and adding 50 μl of previously prepared dilution of test compound. The well was completed with culture medium (150 μl) to a final volume of 200 μl. The plate was incubated at 37° C. and 5% content of CO2 for 3 days (72 h). Cells grown in medium without the test compound served as a control.
(§6) After 72 h incubation, the medium was replaced with MTT (Sigma Aldrich, USA) and dissolved at a final concentration of 5 mg/ml in serum-free medium, for further 3 h incubation. Then, the MTT-formazan product was solubilised in ethanol/dimethyl sulfoxide (DMSO; Sigma-Aldrich, USA) (1:1, V/V), and the optical density was measured at a test wavelength of 540 nm. Each experiment was performed in triplicate.
(§7) Cell viability was reported as the percentage (%) of viable cells in the wells treated with different concentrations of the test substance compared to the control cells untreated with the substances.
A general note: Tetrazolium dyes change colour on reduction, which living cells bring about.

The subject of data set [2] is MT-4 cells. The data set is described as above. The format is cell-based. To be noted: for MNC (maximal non-toxic concentration): MT-4 cells, MTT. The method, then:
as §1, §2, §3, §4, §5, §6, §7

Where [3] appears, read: 72 h, highest concentration of 100 mM, could be due to DMSO.
Where [4] appears, read: 72 h after treatment, concentration range from 10 mM to 0.01 mM.

Turning to `O=c1oc2cc(O)c(O)cc2c(O)c1-c1coc2c1c(=O)oc1cc(O)c(O)cc12` [Compound 2, 7,8-dihydroxy-3-(4,6,7-trihydroxy-2-oxo-2H-chromen-3-yl)-4H-furo[3,2-c]chromen-4-one, reference compound], the CC50 at 72 h in data set [1] is 10 mM. Besides, the “microscopic observation of the morphology of the monolayer” value in data set [2] (setting [3]) was “some morphology changes”; in data set [2] (setting [4]), “typical cytopathology characterizing toxic effects were not registered”. The “MNC (maximal non-toxic concentration)” value in data set [2] (72 h) came out at 0.01 mM.
On the same counts, the results for `O=c1oc2cc(O)cc(O)c2c(O)c1-c1coc2c1c(=O)oc1cc(O)cc(O)c12` [Compound 1, 7,9-dihydroxy-3-(4,5,7-trihydroxy-2-oxo-2H-chromene-3-yl)-4H-furo[3,2-c]chromen-4-one] are 10 mM, “some morphology changes”, “typical cytopathology characterizing toxic effects were not registered” and 0.01 mM.
